1 substance from patent US20040214893A1, “Gabapentin compositions” (priority 2003, published 2004) can be followed below.

The series in a line: pH of aqueous solution of the crystalline salt. To be noted: 14.00 mg crystalline salt in 140 microliters of water. The format is physicochemical. The procedure: Gabapentin (0.55857 g) and ethanedisulfonic acid (0.62940 g) were transferred into a 20 mL scintillation vial. Water (1.5 mL) was added and the mixture was heated to 85 deg. C. to dissolve all of the solids. The solution was filtered through a 0.2 micron filter into a new 20 mL scintillation vial. The vial was capped and placed in the refrigerator (2-4 deg. C.) for 2 hours. The resulting crystals were collected by vacuum filtration (345.83 mg) and analyzed by PXRD. Upon analysis, the crystals were determined to be gabapentin ethanedisulfonic acid salt. A small amount of the crystalline salt (14.00 mg) was weighted into a 3 mL vial and 140 microliters of water was added. The pH of the resulting solution was determined to be 1.2. […] The salt can be characterized by any one, any two, any three, any four, any five, or any six or more of the peaks in FIG. 13 including, but not limited to, 6.0, 11.51, 15.11, 16.17, 17.31, 17.85, 19.73, 20.19, 22.21, 24.63, 26.73, and 28.47 degrees 2-theta.

For gabapentin ethanedisulfonic acid salt, the “pH of the resulting solution” value came to 1.2.
